For 48 compounds, ΔTm results are on record in ChEMBL document CHEMBL5724796, “Tm Shift (DSF) assay results for EUbOPEN Chemogenomics Library” (2024).

Non-standard residues stand in square brackets, D forms with d. Residues, ends and D or L forms follow the SMILES beside them. *: point of attachment. Benzoyl(4-OPh) = O=C(c1ccc(Oc2ccccc2)cc1)*; Lys(Et2) = CCN(CC)CCCC[C@H](N)C(=O)O; d(aIle) = CC[C@H](C)[C@@H](N)C(=O)O; Gly(cPent) = N[C@H](C(=O)O)C1CCCC1; Cbz = O=C(OCc1ccccc1)*; NH(propargyl) = C#CCN*; CH2F = FC*

One test has as its target T1, Peregrin (Homo sapiens) (UniProt P55201).
T1 sequence (whole entry): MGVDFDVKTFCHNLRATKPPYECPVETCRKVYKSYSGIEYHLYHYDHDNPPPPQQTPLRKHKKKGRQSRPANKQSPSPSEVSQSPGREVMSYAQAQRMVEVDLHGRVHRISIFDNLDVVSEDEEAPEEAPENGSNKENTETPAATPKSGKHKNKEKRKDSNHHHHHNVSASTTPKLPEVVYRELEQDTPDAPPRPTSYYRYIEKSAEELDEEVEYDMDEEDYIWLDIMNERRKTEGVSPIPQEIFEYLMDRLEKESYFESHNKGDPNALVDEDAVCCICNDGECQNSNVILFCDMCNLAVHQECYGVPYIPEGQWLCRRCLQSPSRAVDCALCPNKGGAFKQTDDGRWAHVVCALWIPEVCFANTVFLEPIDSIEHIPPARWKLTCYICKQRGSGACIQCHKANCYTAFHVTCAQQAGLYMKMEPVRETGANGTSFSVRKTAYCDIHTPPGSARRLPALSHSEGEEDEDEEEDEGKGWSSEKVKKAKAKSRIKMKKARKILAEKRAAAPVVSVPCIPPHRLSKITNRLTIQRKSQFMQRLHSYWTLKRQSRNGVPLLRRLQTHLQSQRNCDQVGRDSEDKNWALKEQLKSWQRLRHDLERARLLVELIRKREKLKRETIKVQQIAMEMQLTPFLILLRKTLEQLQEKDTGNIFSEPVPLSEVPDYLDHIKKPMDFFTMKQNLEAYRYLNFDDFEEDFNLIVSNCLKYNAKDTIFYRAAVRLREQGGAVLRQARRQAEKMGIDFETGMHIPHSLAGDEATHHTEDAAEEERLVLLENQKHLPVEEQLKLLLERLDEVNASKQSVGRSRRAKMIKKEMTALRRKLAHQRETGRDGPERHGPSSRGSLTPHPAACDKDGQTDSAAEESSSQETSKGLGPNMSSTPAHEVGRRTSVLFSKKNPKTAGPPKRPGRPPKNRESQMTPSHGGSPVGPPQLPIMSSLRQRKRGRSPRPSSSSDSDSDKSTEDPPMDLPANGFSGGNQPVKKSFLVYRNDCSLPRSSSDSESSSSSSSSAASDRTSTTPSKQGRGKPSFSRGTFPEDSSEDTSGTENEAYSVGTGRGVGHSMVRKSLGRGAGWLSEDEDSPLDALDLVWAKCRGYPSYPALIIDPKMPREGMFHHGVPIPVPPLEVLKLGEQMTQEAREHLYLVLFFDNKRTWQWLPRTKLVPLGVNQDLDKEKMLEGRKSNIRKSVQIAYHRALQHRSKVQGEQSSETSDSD
The conditions noted are these: Compound concentration 20.0 uM.

The target of test [1] is Fibroblast growth factor receptor 2 (Homo sapiens) (UniProt P21802). The conditions noted are these: Compound concentration 20.0 uM.
Sequence of Fibroblast growth factor receptor 2 (Homo sapiens) (P21802 22-821 limits assumed): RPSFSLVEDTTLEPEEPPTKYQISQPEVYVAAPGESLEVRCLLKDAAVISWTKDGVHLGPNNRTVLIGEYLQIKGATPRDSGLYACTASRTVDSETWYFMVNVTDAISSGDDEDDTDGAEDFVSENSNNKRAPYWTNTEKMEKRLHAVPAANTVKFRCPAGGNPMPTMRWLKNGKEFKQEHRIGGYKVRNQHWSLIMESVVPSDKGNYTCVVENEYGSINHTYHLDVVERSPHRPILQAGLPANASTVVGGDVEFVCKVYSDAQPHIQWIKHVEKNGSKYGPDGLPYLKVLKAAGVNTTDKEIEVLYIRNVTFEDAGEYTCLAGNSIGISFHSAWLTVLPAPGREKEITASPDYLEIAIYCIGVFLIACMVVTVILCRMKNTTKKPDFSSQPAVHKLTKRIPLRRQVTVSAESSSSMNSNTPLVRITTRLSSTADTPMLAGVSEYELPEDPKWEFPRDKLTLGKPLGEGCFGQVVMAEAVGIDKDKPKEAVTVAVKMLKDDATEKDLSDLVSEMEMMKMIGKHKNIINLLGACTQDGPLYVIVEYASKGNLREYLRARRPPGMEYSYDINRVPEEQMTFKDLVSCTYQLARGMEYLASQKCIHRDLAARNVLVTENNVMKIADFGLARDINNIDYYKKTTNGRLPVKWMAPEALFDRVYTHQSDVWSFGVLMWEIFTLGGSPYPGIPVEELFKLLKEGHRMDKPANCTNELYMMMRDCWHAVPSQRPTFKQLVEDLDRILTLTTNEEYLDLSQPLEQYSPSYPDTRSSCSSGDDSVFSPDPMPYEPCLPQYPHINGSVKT
Description: Thermal Shift Assay. Domain: start/stop: T457-E768

For `COC(=O)CC[C@H](NC(=O)[C@H](C)NC(=O)OCc1ccccc1)C(=O)N[C@H](C(=O)N[C@@H](CC(=O)OC)C(=O)CF)C(C)C` (Cbz-AE(OMe)VD(OMe)-CH2F), the figures for the ΔTm (at Peregrin (Homo sapiens); in test [1]) were -0.82 °C and 0.54 °C, respectively.
As to `CC(=O)N[C@@H](Cc1ccc(O)cc1)C(=O)N[C@H](C(=O)N[C@@H](C)C(=O)N[C@H](C=O)CC(=O)O)C(C)C`, the ΔTm (as a rule, the shift of the melting midpoint relative to a reference) at Peregrin (Homo sapiens) was -1.25 °C; in test [1], 0.54 °C.
With `COc1ccc(N(C(=O)Oc2c(C)cccc2C)c2ccnc(Nc3ccc(N4CCN(C)CC4)cc3)n2)c(OC)c1`, the values for the ΔTm (on Peregrin (Homo sapiens); in test [1]) were -1.1 °C and 4.44 °C, respectively.
For the compound `CC[C@H](C)[C@H](NC(C)=O)C(=O)N[C@@H](CCC(=O)O)C(=O)N[C@H](C(=O)N[C@H](C=O)CC(=O)O)[C@@H](C)O` (Ac-IETD-aldehyde), the ΔTm on Peregrin (Homo sapiens) was -0.66 °C; in test [1], 0.37 °C.
For `COc1ccc(-c2ccc(-c3cn(C(=O)N4CCCCC4c4ccccc4)nn3)cc2)cc1` (stereo unspecified), the ΔTm was -1.62 °C on Peregrin (Homo sapiens) and 0.03 °C in test [1].
Regarding `CCNC(=O)/C=C/c1cccc(Br)c1`, the values for the ΔTm (at Peregrin (Homo sapiens); in test [1]) were -1.37 °C and -0.4 °C, respectively.
For `O=C(O)/C(S)=C/c1ccc(I)cc1`, the figures for the ΔTm (at Peregrin (Homo sapiens); in test [1]) were -1.4 °C and -1 °C, respectively.
In the same order, the values of `O=C(CCCCCCNC(=O)c1cnc(N(c2ccccc2)c2ccccc2)nc1)NO` are -1.39 °C and -0.22 °C.
In the same order, the values of `CC(C)C(=O)SCCCCCCC(=O)Nc1nc(-c2ccccc2)cs1` are -1.14 °C and 1.03 °C.
In the same order, the values of `NS(=O)(=O)OC[C@H]1C[C@@H](Nc2ncncc2C(=O)c2ccn(Cc3cccc(Br)c3)n2)C[C@@H]1O` are 1.11 °C and -0.38 °C.
For the compound `C#CCNC(=O)[C@H](CO)NC(=O)[C@H](CCCCN(CC)CC)NC(=O)[C@H](NC(=O)[C@@H](NC(=O)c1ccc(Oc2ccccc2)cc1)C1CCCC1)[C@@H](C)CC` ({Benzoyl(4-OPh)}-[Gly(cPent)][d(aIle)][Lys(Et2)]S-{NH(propargyl)}), the ΔTm on Peregrin (Homo sapiens) is -0.64 °C; in test [1], -1.33 °C.
On to `CC(C)N(CCCNC(=O)Nc1ccc(C(C)(C)C)cc1)C[C@H]1O[C@@H](n2ccc3c(N)ncnc32)[C@H](O)[C@@H]1O`, for which the ΔTm at Peregrin (Homo sapiens) was -2.69 °C; in test [1], 0.6 °C.
Turning to `O=C(C1CC1)N1CCN(Cn2sc3ccccc3c2=O)CC1`, the results for the ΔTm (at Peregrin (Homo sapiens); in test [1]) were -1.36 °C and 0.46 °C, respectively.
In the same order, the values of `O=C(NC1CCC1)c1ccc2nc(-c3cccc(NS(=O)(=O)NCCN4CCCCC4)c3)cn2c1` are 1.25 °C and -0.11 °C.
On to `CC/C(=C(/c1ccc(/C=C/C(=O)O)cc1)c1ccc2[nH]ncc2c1)c1ccc(F)cc1Cl`, for which the ΔTm at Peregrin (Homo sapiens) was 0 °C; in test [1], -5.4 °C.
In the same order, the values of `CC(C)Cn1c(=O)n(C)c(=O)c2c(C(=O)N3CC[C@@H](O)C3)c(Cc3ccnc4ccccc34)sc21` are 0.74 °C and 0.61 °C.
Turning to `CC1(C)c2cccc(C(=O)NO)c2CN1c1cnc(C(F)(F)F)cn1`, the ΔTm was determined as 0.66 °C on Peregrin (Homo sapiens) and 0.83 °C in test [1].
Turning to `CC(=O)N[C@@H](C)C(=O)N[C@@H](CCC(=O)O)C(=O)N[C@H](C(=O)N[C@@H](C=O)CC(=O)O)C(C)C`, the ΔTm at Peregrin (Homo sapiens) was -1.79 °C; in test [1], 0.19 °C.
Consider `CS(=O)(=O)N1CCN(C(=O)c2cnc3ccc(F)cc3c2N2CCC(C#N)(c3ccccc3)CC2)CC1`, for which the results for the ΔTm (at Peregrin (Homo sapiens); in test [1]) were 1.45 °C and -4.51 °C, respectively.
On to `COc1cc2c(NC3CCN(C)CC3)cc(-c3ccc(C)o3)nc2cc1OCCCN1CCCC1`, for which the results for the ΔTm (on Peregrin (Homo sapiens); in test [1]) were -0.96 °C and 0.85 °C, respectively.
As for `C/C(=N\NC(=O)c1cccc(S(=O)(=O)N2CCOCC2)c1)c1cc(Cl)ccc1O`, the ΔTm on Peregrin (Homo sapiens) is 2.44 °C; in test [1], -0.21 °C.
Turning to `CC(C)n1nc(-c2cc3cc(O)ccc3[nH]2)c2c(N)ncnc21`, the ΔTm on Peregrin (Homo sapiens) was found to be 1.52 °C; in test [1], 4.67 °C.
In the same order, the values of `O=C(NCCCCCCCCNC(=O)C(Cl)Cl)C(Cl)Cl` are 0.99 °C and -0.34 °C.
On to `NC(=O)C(CCCN=C(N)CCl)NC(=O)c1ccccc1` (stereo unspecified), for which the ΔTm at Peregrin (Homo sapiens) is 1.58 °C; in test [1], -0.58 °C.
Take `O=c1[nH]c(N2CCC3(CC2)CN(CCO)c2cc(F)cc(F)c23)nc2c1CCCC2`: the figures for the ΔTm (on Peregrin (Homo sapiens); in test [1]) were 1.75 °C and -0.52 °C, respectively.
For `COc1cc(C(=O)N2C[C@H](N)CC[C@@H]2C)cc2nc(-c3cc4cccnc4n3CC3CC3)n(C)c12`, the ΔTm was 0.21 °C on Peregrin (Homo sapiens) and 0.33 °C in test [1].
For the compound `COC1CCN(C(=O)c2cc(Cc3n[nH]c(=O)c4ccccc34)ccc2F)CC1`, the ΔTm is 1.51 °C at Peregrin (Homo sapiens) and -0.21 °C in test [1].
As to `c1cncc(-c2cnn[nH]2)c1`, the ΔTm at Peregrin (Homo sapiens) was found to be 0.36 °C; in test [1], 0.33 °C.
With `C[C@@H]1CN(Cc2ncccn2)C[C@H]1c1nc2c(cnn2C2CCOCC2)c(=O)[nH]1`, the results for the ΔTm (on Peregrin (Homo sapiens); in test [1]) were 0.83 °C and 0.17 °C, respectively.
In the same order, the values of `CC(C)c1ccc(-c2cc(=O)c3ccccc3o2)cc1` are -0.32 °C and -0.13 °C.
In the same order, the values of `Cn1ncc2c(-c3c(-c4ccc(F)cn4)nn4c3COC(C)(C)C4)ccnc21` are -1.06 °C and 1.01 °C.
In the case of `O=c1[nH][nH]c(=O)c2cc(OCc3ccccc3F)ccc12`, the ΔTm was 2.62 °C at Peregrin (Homo sapiens) and 0.22 °C in test [1].
`Oc1nc(-c2ccc(C(F)(F)F)cc2)nc2c1CSCC2`: the ΔTm at Peregrin (Homo sapiens) is 0.57 °C; in test [1], -0.47 °C.
As to `COc1ccc(C(=O)N[C@H](C(=O)N2CCC[C@H]2C(=O)N[C@H](C(=O)C(F)(F)F)C(C)C)C(C)C)cc1`, the ΔTm on Peregrin (Homo sapiens) turned out to be 0.8 °C; in test [1] it was 0.07 °C.
In the case of `CCN(CC)C(=O)/C(C#N)=C/c1cc(O)c(O)c([N+](=O)[O-])c1`, the values for the ΔTm (at Peregrin (Homo sapiens); in test [1]) were 1.31 °C and 0.06 °C, respectively.
Take `O=C(Nc1ccccc1C(=O)O)c1cc(S(=O)(=O)c2ccccc2)ccc1Cl`: the ΔTm is 0.95 °C at Peregrin (Homo sapiens) and -0.48 °C in test [1].
Regarding `Cc1cc(-c2ccc3nc(C4CCOCC4)n(CCOC(F)(F)F)c3c2)cn(C)c1=O`, the ΔTm on Peregrin (Homo sapiens) turned out to be 4.67 °C; in test [1], 0.33 °C.
In the same order, the values of `CC(C)[C@@H]1NC(=O)[C@H](Cc2ccc(O)cc2)NC(=O)[C@@H](CC(=O)O)NC(=O)S[C@@H](C(=O)O)NC(=O)[C@H]([C@H](C)O)NC(=O)[C@H](Cc2ccc(O)cc2)NC(=O)[C@H](Cc2c[nH]c3ccccc23)NC(=O)[C@H](CCCNC(=N)N)NC(=O)[C@H](Cc2c[nH]c3ccccc23)NC(=O)[C@H](C)NC(=O)[C@H](CO)NC(=O)[C@H](CCCNC(=N)N)NC(=O)[C@H]([C@H](C)O)NC(=O)[C@H](CC(N)=O)NC(=O)[C@H](Cc2ccc(O)cc2)NC1=O` are 1.38 °C and 0.32 °C.
With `Cc1[nH]c2c(N3CCO[C@H](CO)C3)c(C#N)c(C(F)(F)F)nc2c1Cl`, the ΔTm turned out to be 1.11 °C on Peregrin (Homo sapiens) and 0.41 °C in test [1].
On to `CC(C)N(C[C@H]1O[C@@H](n2cnc3c(N)ncnc32)[C@H](O)[C@@H]1O)[C@H]1C[C@@H](CCc2nc3cc(C(C)(C)C)ccc3[nH]2)C1`, for which the ΔTm was -1.35 °C at Peregrin (Homo sapiens) and 0.82 °C in test [1].
With `O=C(c1ccc2c(ccn2-c2ccc(F)cc2)c1)N1CC(N2CCN(C(=O)c3nccs3)CC2)C1`, the results for the ΔTm (at Peregrin (Homo sapiens); in test [1]) were -2.53 °C and -0.43 °C, respectively.
In the same order, the values of `O=C(NCCCOc1ccc2[nH]c(=O)ccc2c1)N(C1CC1)[C@@H]1CCCC[C@H]1O` are 1.1 °C and 0.24 °C.
Turning to `CN1CCN(c2nc(-c3ccc(C(=O)NC4(C(=O)NCC#N)CCCCC4)cc3)cs2)CC1`, the ΔTm is -1.32 °C at Peregrin (Homo sapiens) and 0.15 °C in test [1].
Consider `CCc1ccccc1NC(=O)CSC(=O)NNC(=O)[C@H](Cc1c[nH]c2ccccc12)NC(=O)OC(C)(C)C`, for which the ΔTm is -6.08 °C at Peregrin (Homo sapiens) and -9.39 °C in test [1].
As to `FC(F)(F)Cn1cc(-c2ccncc2)c(-c2ccc(OCc3ccc4ccccc4n3)cc2)n1`, the ΔTm at Peregrin (Homo sapiens) amounted to 0.9 °C; in test [1], 0.04 °C.
Take `CN1[C@@H]2CC[C@H]1C[C@@H](OC(c1ccc(F)cc1)c1ccc(F)cc1)C2`: the ΔTm is -0.08 °C on Peregrin (Homo sapiens) and -0.72 °C in test [1].
Turning to `CCN(C(=O)c1cc(F)ccc1Oc1cncnc1N1CC2(CCN(C[C@H]3CC[C@H](NS(=O)(=O)CC)CC3)CC2)C1)C(C)C`, the ΔTm on Peregrin (Homo sapiens) amounted to 0.45 °C; in test [1], 0.21 °C.
Turning to `CN(CC[C@@H](Oc1ccc(-c2ccccc2)cc1)c1ccc(F)cc1)CC(=O)O`, the ΔTm was -0.36 °C at Peregrin (Homo sapiens) and 0.18 °C in test [1].
